In patent US7445897B2, “Sequence variants of multi-drug resistance genes, MDR1 and MRP1, and methods for assessment of drug penetration and disposition” (University of Washington, priority 2004, dated 2008):
Where two headings read alike, the source gives them in different places.

Legend:
[1] = tested on: HEK negative control cells; assay: Cytotoxic drug sensitivity assay (MTS); type: cell-based, human; conditions: HEK Control; 72hours, MTS; read-out: EC50 (Mean ± S.D.)
[2] = tested on: HEK - MDR1 WT cells; assay: Cytotoxic drug sensitivity assay (MTS); type: cell-based, human; conditions: HEK MDR1 WT; 72hours, MTS; read-out: EC50 (Mean ± S.D.)
[3] = tested on: HEK - MDR1 G1199T cells; assay: Cytotoxic drug sensitivity assay (MTS); type: cell-based, human; conditions: HEK MDR1 G1199T; 72hours, MTS; read-out: EC50 (Mean ± S.D.)
[4] = tested on: HEK - MDR1 G1199A cells
[5] = tested on: LLC-PK1 control cells; assay: Intracellular uptake of HIV protease inhibitors; type: in vitro ADME, porcine
[6] = tested on: LLC-PK1 control cells
[7] = tested on: P-gp (MDR11199, G1199A) in recombinant LLC-PK1 cells; conditions: human, LLC-PK1
[8] = target: MDR1-wt in recombinant LLC-PK1 cells (Homo sapiens, UniProt P08183, G185V/S893A)
Sequence of MDR1-wt in recombinant LLC-PK1 cells (P08183 whole entry G185V/S893A): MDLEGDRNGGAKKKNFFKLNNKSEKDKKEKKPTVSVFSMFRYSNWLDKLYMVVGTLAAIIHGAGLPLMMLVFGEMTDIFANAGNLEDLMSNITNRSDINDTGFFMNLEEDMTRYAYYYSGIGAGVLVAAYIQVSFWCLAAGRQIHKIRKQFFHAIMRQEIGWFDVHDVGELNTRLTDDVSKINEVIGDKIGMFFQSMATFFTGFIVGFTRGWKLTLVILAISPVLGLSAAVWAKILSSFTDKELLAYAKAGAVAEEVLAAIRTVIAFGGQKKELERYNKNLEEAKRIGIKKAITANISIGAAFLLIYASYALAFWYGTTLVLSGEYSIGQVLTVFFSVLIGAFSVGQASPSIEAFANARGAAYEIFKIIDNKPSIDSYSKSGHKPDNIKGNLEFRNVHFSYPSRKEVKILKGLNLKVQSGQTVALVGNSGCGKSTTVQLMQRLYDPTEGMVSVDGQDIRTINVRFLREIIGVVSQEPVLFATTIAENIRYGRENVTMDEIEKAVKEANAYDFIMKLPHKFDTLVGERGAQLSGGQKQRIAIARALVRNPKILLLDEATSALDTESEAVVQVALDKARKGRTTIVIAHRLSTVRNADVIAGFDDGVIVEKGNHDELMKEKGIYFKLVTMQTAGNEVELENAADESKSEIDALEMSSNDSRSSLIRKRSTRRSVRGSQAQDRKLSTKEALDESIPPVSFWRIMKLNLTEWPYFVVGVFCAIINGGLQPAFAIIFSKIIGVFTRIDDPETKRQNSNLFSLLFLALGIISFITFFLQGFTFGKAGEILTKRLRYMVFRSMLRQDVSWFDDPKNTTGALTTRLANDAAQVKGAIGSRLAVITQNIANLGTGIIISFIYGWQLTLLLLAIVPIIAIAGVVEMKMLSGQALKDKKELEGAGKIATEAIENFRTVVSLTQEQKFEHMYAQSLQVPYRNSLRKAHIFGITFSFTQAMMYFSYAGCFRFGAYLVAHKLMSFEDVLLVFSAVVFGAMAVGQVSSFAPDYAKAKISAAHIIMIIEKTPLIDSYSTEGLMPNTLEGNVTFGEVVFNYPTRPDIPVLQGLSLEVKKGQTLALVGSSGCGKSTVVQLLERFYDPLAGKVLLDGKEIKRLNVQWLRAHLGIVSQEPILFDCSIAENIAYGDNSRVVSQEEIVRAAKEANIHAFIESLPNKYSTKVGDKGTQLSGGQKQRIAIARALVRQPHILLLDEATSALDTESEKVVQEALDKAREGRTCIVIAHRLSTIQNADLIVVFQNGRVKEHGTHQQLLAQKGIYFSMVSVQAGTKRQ

[9] = target: MDR1-1199A in recombinant LLC-PK1 cells (Homo sapiens, UniProt P08183, G185V/S400N/S893A)
Sequence of MDR1-1199A in recombinant LLC-PK1 cells (P08183 whole entry G185V/S400N/S893A): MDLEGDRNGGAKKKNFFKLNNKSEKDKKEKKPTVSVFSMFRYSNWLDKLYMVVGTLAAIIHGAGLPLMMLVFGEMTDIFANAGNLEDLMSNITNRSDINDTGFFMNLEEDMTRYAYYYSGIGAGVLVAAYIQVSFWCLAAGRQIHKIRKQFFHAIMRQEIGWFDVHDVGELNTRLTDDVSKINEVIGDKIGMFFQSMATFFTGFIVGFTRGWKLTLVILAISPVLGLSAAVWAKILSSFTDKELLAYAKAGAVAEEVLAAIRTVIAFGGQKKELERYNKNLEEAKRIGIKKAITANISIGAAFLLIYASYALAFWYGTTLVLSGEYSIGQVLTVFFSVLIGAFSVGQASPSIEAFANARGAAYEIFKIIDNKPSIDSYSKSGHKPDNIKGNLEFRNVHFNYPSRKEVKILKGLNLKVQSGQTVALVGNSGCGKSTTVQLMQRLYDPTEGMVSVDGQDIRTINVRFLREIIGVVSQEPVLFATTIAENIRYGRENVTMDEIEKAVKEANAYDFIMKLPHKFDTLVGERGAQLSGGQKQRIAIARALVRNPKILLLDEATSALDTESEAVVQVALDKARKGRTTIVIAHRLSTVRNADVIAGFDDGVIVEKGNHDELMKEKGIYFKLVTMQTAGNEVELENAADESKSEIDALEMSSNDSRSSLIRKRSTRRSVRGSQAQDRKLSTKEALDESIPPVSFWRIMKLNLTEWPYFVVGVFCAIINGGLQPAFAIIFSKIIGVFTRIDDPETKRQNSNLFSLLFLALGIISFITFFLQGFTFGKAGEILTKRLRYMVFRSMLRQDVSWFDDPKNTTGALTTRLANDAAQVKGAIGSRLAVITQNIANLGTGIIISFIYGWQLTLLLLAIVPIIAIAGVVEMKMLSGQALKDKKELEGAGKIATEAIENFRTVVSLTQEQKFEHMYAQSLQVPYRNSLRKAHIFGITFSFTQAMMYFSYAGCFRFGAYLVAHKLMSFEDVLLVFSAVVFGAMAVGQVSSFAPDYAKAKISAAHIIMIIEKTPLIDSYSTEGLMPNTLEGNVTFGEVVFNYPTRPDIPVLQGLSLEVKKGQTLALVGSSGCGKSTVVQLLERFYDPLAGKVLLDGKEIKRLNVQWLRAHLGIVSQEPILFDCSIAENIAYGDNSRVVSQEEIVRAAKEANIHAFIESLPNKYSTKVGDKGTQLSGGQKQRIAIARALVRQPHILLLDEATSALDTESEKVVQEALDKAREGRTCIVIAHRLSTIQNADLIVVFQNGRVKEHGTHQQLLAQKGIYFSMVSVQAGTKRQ

[10] = target: MDR1 (wild type) (Homo sapiens, UniProt P08183, G185V/S893A); assay: in vitro
Sequence of MDR1 (wild type) (P08183 whole entry G185V/S893A): as the sequence (P08183 whole entry G185V/S893A) above

[11] = target: MDR1 (1199A variant) (Homo sapiens, UniProt P08183, G185V/S400N/S893A); assay: Intracellular uptake of HIV protease inhibitors; conditions: recombinant LLC-PK1 cells expressing MDR1-1199A
Sequence of MDR1 (1199A variant) (P08183 whole entry G185V/S400N/S893A): as the sequence (P08183 whole entry G185V/S400N/S893A) above

[12] = protease inhibitor + GF120918 (1 μM)

ivermectin
EC50 [1]: 4.1 ± 0.21 µM
EC50 [2]: 3.809 ± 0.0273 µM
EC50 [3]: 3.84 ± 0.307 µM
EC50 [4]: 4.04 ± 0.0776 µM

CC(C)(C)NC(=O)[C@@H]1C[C@@H]2CCCC[C@@H]2CN1C[C@@H](O)[C@H](Cc1ccccc1)NC(=O)[C@H](CC(N)=O)NC(=O)c1ccc2ccccc2n1 [saquinavir]
Km [5]: 2 µM
Vmax [5]: 1.47 pmole/min*10^6 cells
Rate of transfer dQ/dt ± s.d., A → B [6, 12]: 3.48 ± 0.57
Rate of transfer dQ/dt ± s.d., B → A [6, 12]: 7.36 ± 0.60
Rate of transfer dQ/dt ± s.d., A → B ([6]; protease inhibitor alone, 5 μM): 3.02 ± 0.35
Rate of transfer dQ/dt ± s.d., B → A ([6]; protease inhibitor alone, 5 μM): 8.03 ± 0.51
decrease in apical-to-basolateral flux in MDR11199 cells compared to MDR1wt cells [7]: 2.3 fold
Vmax [8]: 1.13 pmole/min*10^6 cells
Vmax [9]: 1.00 pmole/min*10^6 cells
Km [10]: 18 µM
Km [11]: 14.5 µM
